What all share (experiment): NCI-60 cell line screen, 48 h
The test system of assay [1] is MOLT-4.
Assay [2] deals with MDA-MB-231.
Assay [3] relates to LOX IMVI.
For assay [4], the system named is NCI/ADR-RES.
In assay [5] the test system is HT-29.
Assay [6] concerns BT-549.
Assay [7] deals with RPMI-8226.
Assay [8] relates to NCI-H226.
Assay [9] concerns CAKI-1.
Assay [10] relates to T47D.
For assay [11], the system named is HL-60.
Assay [12] relates to SN12C.
Assay [13] deals with SK-MEL-2.
Assay [14] concerns UACC-257.
The subject of assay [15] is A549.
The test system of assay [16] is EKVX.
Assay [17] relates to A498.
Assay [18] relates to SF-295.
In assay [19] the test system is Malme-3M.

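Briefly, cells in 96-well plates were exposed to five compound concentrations for 48 h, and endpoints were estimated by linear interpolation. GI50: concentration for 50% inhibition of growth.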 Calls of active or inactive are those of the source. Cut-off read from the data, not from the text of the source: active = GI50 up to about 1.1 µM and inactive = higher.

For the compound `COc1cc(/C=C/C(=O)N[C@@H]2C(=O)N3[C@@H]2SC(C)(C)[C@@H]3C(=O)O)ccc1O`, the GI50 in [1] is > 100 µM (inactive); in assay [2], > 100 µM (inactive); in assay [3], 75 µM (inactive); in assay [4], > 100 µM (inactive); in assay [5] it was > 100 µM (inactive); in [6] it was > 100 µM (inactive). Besides, the GI50 in assay [7], in [8], in assay [9], in [10], in assay [11] and in assay [12] was > 100 µM (inactive) throughout. Further, the GI50 in [13], in [14], in assay [15], in [16], in assay [17] and in [18] was > 100 µM (inactive) each time.

As to `NC(=O)CC(N)C(N)=O` (stereo not drawn), the GI50 in assay [1], in [2], in assay [3], in [4], in assay [6] and in [7] was > 100 µM (inactive) throughout. For the same compound, the GI50 in [8], in assay [9], in [10], in assay [11], in [12] and in assay [13] was > 100 µM (inactive) each time. The GI50 in assay [19], in assay [14], in [15], in assay [17] and in assay [18] was > 100 µM (inactive) in each case.

In the case of `O=c1[nH]nc(Nc2ccc(Cl)cc2)c2nnn(C3CCCCC3)c12`, the GI50 in assay [2] is 13.9 µM (inactive); in assay [3], 16.4 µM (inactive); in assay [4], 32.1 µM (inactive); in [5], 26.1 µM (inactive); in [6], > 100 µM (inactive); in assay [7], 50.7 µM (inactive). Besides, the GI50 in assay [8] was 86.7 µM (inactive); in assay [9], 16.2 µM (inactive); in assay [10], > 100 µM (inactive); in assay [11], 86.3 µM (inactive); in assay [12], > 100 µM (inactive); in [13], > 100 µM (inactive). For the same compound, the GI50 was 50.8 µM (inactive) in assay [19]; > 100 µM (inactive) in assay [14]; > 100 µM (inactive) in assay [15]; 84.1 µM (inactive) in assay [16]; 37.4 µM (inactive) in assay [17]; > 100 µM (inactive) in [18].

As for `N#C[BH2-][n+]1ccc(C(=O)NNCc2ccc(F)cc2)cc1`, the GI50 in assay [1], in assay [2], in [3], in [4], in assay [6] and in assay [7] was > 100 µM (inactive) throughout. Besides, the GI50 in assay [8], in assay [9], in [10], in assay [11], in assay [12] and in assay [13] was > 100 µM (inactive) in each case. The GI50 in assay [19], in [14], in assay [15], in [16], in [17] and in assay [18] was > 100 µM (inactive) throughout.

Turning to `CCOc1ccccc1/N=N/C1C(=O)N(C(=O)CC(=O)Nc2ccccc2OC)N=C1C` (stereo not drawn), the GI50 was > 100 µM (inactive) in assay [1]; 30.3 µM (inactive) in [2]; > 100 µM (inactive) in assay [3]; 54.7 µM (inactive) in assay [4]; > 100 µM (inactive) in assay [5]; > 100 µM (inactive) in assay [6]. The GI50 in assay [7] was 45.2 µM (inactive); in assay [8] it was > 100 µM (inactive); in [9], > 100 µM (inactive); in [10] it was 37 µM (inactive); in [11], > 100 µM (inactive); in assay [12], > 100 µM (inactive). Moreover, the GI50 is 55.7 µM (inactive) in [13]; > 100 µM (inactive) in assay [19]; > 100 µM (inactive) in assay [15]; 0.427 µM (active) in [16]; 63.4 µM (inactive) in [17]; 20.9 µM (inactive) in [18].

On to `OCCN1CN(c2nc(N3CN(CCO)C3)nc(N3CN(CCO)C3)n2)C1`, for which the GI50 in assay [1] was 33.7 µM (inactive); in [2], 19.8 µM (inactive); in assay [3], 14.8 µM (inactive); in assay [4], 31.1 µM (inactive); in assay [5], 25.5 µM (inactive); in assay [6], 32.6 µM (inactive). Also, the GI50 in assay [7] was 27.6 µM (inactive); in assay [8] it was 24.8 µM (inactive); in assay [9] it was 22.5 µM (inactive); in [10], 25.8 µM (inactive); in [11] it was 16 µM (inactive); in [12], 18 µM (inactive). Further, the GI50 was 18.7 µM (inactive) in [13]; 21.5 µM (inactive) in assay [19]; 18.9 µM (inactive) in assay [14]; 83.4 µM (inactive) in assay [15]; 26.8 µM (inactive) in [16]; 31.5 µM (inactive) in [17].

Turning to `CCOc1ccc(-n2c(=O)n3c(Nc4ccc(Cl)cc4)nc4c(c(=O)n(C)c(=O)n4C)n3c2=O)cc1`, the GI50 in [1] was 23.9 µM (inactive); in assay [2], 15.5 µM (inactive); in assay [3], 20.4 µM (inactive); in assay [4], > 100 µM (inactive); in assay [5] it was 27.7 µM (inactive); in assay [6] it was 29 µM (inactive). The GI50 in [7] is 24 µM (inactive); in assay [8], 22.7 µM (inactive); in assay [9] it was 38.5 µM (inactive); in assay [10] it was 39.2 µM (inactive); in assay [11], 22 µM (inactive); in assay [12], 27.2 µM (inactive). In addition, the GI50 was 26.4 µM (inactive) in assay [13]; 23.5 µM (inactive) in assay [14]; 75.5 µM (inactive) in [15]; 24.9 µM (inactive) in assay [16]; 22.9 µM (inactive) in assay [17]; 31.6 µM (inactive) in [18].

Turning to `Nc1ccc([As](=O)(O)O)cc1` [ARSANILIC ACID], the GI50 in assay [1], in assay [2], in [3], in [4], in assay [5] and in [6] was > 100 µM (inactive) each time. For the same compound, the GI50 in [8], in assay [9], in [10], in assay [11], in assay [12] and in assay [13] was > 100 µM (inactive) in each case. For the same compound, the GI50 in [19], in assay [14], in assay [15], in [16], in assay [17] and in [18] was > 100 µM (inactive) throughout.

(Values after ChEMBL document CHEMBL1201862, “PubChem BioAssay data set” (2004).)
